# Key:
# [1] = tested on: cytochrome P-450 liver drug metabolizing enzymes; assay: induction of liver drug metabolizing enzymes in an in vivo rat model; settings: oral administration
# [2] = serum levels, half life and tissue distribution after oral dosing; type: in vivo, mice, rats, dogs and monkeys
# [3] = tested on: Candida glabrata; assay: in vitro broth dilution MIC against Candida glabrata; type: cell-based; settings: 9 strains
# Method: (§1) The in vitro antifungal activity tests were performed via conventional broth dilution methods in Sabouraud dextrose broth ("SDB") medium and Eagles Minimum Essential Medium ("EMEM") against a large number of fungi. Minimum Inhibitory Concentrations ("MICs") were measured after 24, 48 and 72 hour tests. In many cases, Minimum Fungicidial Concentrations ("MFCS") were measured after 48 and 72 hours.
# [4] = tested on: Dermatophytes; assay: in vitro broth dilution MFC against Dermatophytes; type: cell-based, T. rubrum, T. mentagrophytes, and T. tonsurans; settings: 6 strains
# Method: as §1
# [5] = tested on: Candida krusei; assay: in vitro broth dilution MFC against Candida krusei; type: cell-based; settings: 16 strains
# Method: as §1
# [6] = tested on: Aspergillus; assay: in vitro broth dilution MFC against Aspergillus; type: cell-based, Aspergillus flavus, fumigatus and other species; settings: 37 strains
# Method: as §1
# [7] = tested on: Candida krusei; assay: in vitro broth dilution MIC against Candida krusei; type: cell-based; settings: 16 strains
# Method: as §1
# [8] = tested on: Aspergillus; assay: in vitro broth dilution MIC against Aspergillus; type: cell-based, Aspergillus flavus, fumigatus and other species; settings: 37 strains
# Method: as §1
# [9] = tested on: Candida tropicalis & stellatoidea; settings: 5 strains
# Method: as §1
# [10] = tested on: Cryptococcus neoformans; assay: in vitro broth dilution MIC against Cryptococcus neoformans; type: cell-based; settings: 3 strains
# Method: as §1
# [11] = tested on: Candida albicans; assay: in vitro broth dilution MIC against Candida albicans; type: cell-based; settings: 26 strains
# Method: as §1
# [12] = tested on: Candida glabrata; assay: in vitro broth dilution MFC against Candida glabrata; type: cell-based; settings: 9 strains
# Method: as §1
# [13] = tested on: Candida tropicalis & stellatoidea; assay: in vitro broth dilution MIC against Candida tropicalis & stellatoidea; type: cell-based; settings: 5 strains
# Method: as §1
# [14] = tested on: Cryptococcus neoformans; assay: in vitro broth dilution MFC against Cryptococcus neoformans; type: cell-based; settings: 3 strains
# Method: as §1
# [15] = tested on: Dermatophytes; assay: in vitro broth dilution MIC against Dermatophytes; type: cell-based, T. rubrum, T. mentagrophytes, and T. tonsurans; settings: 6 strains
# [16] = tested on: Candida albicans; settings: 26 strains
# Method: as §1
structure (smiles),measurement,setting,value
CC[C@@H]([C@H](C)O)n1ncn(-c2ccc(N3CCN(c4ccc(OC[C@@H]5CO[C@@](Cn6cncn6)(c6ccc(F)cc6F)C5)cc4)CC3)cc2)c1=O [drawing 20],induction of cytochrome P-450 liver drug metabolizing enzymes,[1],not inducers
same,serum half lives,[2]; O.D. dosing,very long serum half lives
same,tissue distribution,[2]; O.D. dosing,good tissue distribution
same,serum levels compared to azoles of similiar structure,"[2]; oral dosing, methyl cellulose formulation, mice, rats, dogs and monkeys",consistently higher serum levels
CC[C@@H]([C@@H](C)O)n1ncn(-c2ccc(N3CCN(c4ccc(OC[C@@H]5CO[C@@](Cn6cncn6)(c6ccc(F)cc6F)C5)cc4)CC3)cc2)c1=O,PERCENTAGE OF STRAINS WITH MICs ≤1 MCG/ML,[3],33 PERCENTAGE
same,PERCENTAGE OF STRAINS WITH MFCs ≤1 MCG/ML,[4],100 PERCENTAGE
same,PERCENTAGE OF STRAINS WITH MFCs ≤1 MCG/ML,[5],100 PERCENTAGE
same,PERCENTAGE OF STRAINS WITH MFCs ≤1 MCG/ML,[6],89 PERCENTAGE
CC[C@@H]([C@H](C)O)n1ncn(-c2ccc(N3CCN(c4ccc(OC[C@@H]5CO[C@@](Cn6cncn6)(c6ccc(F)cc6F)C5)cc4)CC3)cc2)c1=O [drawing 22],PERCENTAGE OF STRAINS WITH MFCs ≤1 MCG/ML,[4],83 PERCENTAGE
same,PERCENTAGE OF STRAINS WITH MFCs ≤1 MCG/ML,[5],94 PERCENTAGE
same,PERCENTAGE OF STRAINS WITH MFCs ≤1 MCG/ML,[6],62 PERCENTAGE
CC[C@H]([C@H](C)O)n1ncn(-c2ccc(N3CCN(c4ccc(OC[C@@H]5CO[C@@](Cn6cncn6)(c6ccc(F)cc6F)C5)cc4)CC3)cc2)c1=O,PERCENTAGE OF STRAINS WITH MICs ≤1 MCG/ML,[7],100 PERCENTAGE
same,PERCENTAGE OF STRAINS WITH MICs ≤1 MCG/ML,[8],100 PERCENTAGE
same,PERCENTAGE OF STRAINS WITH MFCs ≤1 MCG/ML,[9],100 PERCENTAGE
same,PERCENTAGE OF STRAINS WITH MICs ≤1 MCG/ML,[10],100 PERCENTAGE
same,PERCENTAGE OF STRAINS WITH MICs ≤1 MCG/ML,[3],22 PERCENTAGE
same,PERCENTAGE OF STRAINS WITH MICs ≤1 MCG/ML,[11],100 PERCENTAGE
same,PERCENTAGE OF STRAINS WITH MFCs ≤1 MCG/ML,[4],67 PERCENTAGE
same,PERCENTAGE OF STRAINS WITH MFCs ≤1 MCG/ML,[12],22 PERCENTAGE
same,PERCENTAGE OF STRAINS WITH MFCs ≤1 MCG/ML,[5],88 PERCENTAGE
same,PERCENTAGE OF STRAINS WITH MICs ≤1 MCG/ML,[13],100 PERCENTAGE
same,PERCENTAGE OF STRAINS WITH MFCs ≤1 MCG/ML,[14],100 PERCENTAGE
same,PERCENTAGE OF STRAINS WITH MICs ≤1 MCG/ML,[15],100 PERCENTAGE
same,PERCENTAGE OF STRAINS WITH MFCs ≤1 MCG/ML,[16],100 PERCENTAGE
same,PERCENTAGE OF STRAINS WITH MFCs ≤1 MCG/ML,[6],50 PERCENTAGE

# From patent publication US5714490A, “Tetrahydrofuran antifungals” (Schering Corporation, priority 1995, dated 1998)
